Measurements: BindingDB's records for doi:10.1016/j.ejmech.2015.12.016 (Shenyang Pharmaceutical University, 2016)

Key:
[1] = Inhibition of VEGFR-3 (unknown origin) by tumor cell growth inhibition assay
[2] = Inhibition of VEGFR-2 (unknown origin) by tumor cell growth inhibition assay
[3] = Inhibition of VEGFR-1 (unknown origin) by tumor cell growth inhibition assay
[4] = Inhibition of c-Met (unknown origin) by tumor cell growth inhibition assay

IC50 [1]: 4 nM
IC50 [2]: 3 nM
IC50 [3]: 3 nM
IC50 [4]: 1 nM
Compound: Cn1ccnc1-c1cc2c(Oc3ccc(NC(=S)NC(=O)Cc4ccccc4)cc3F)ccnc2s1
